Assays:
Test in all cases: relative viability (nuclei count vs DMSO), 5 days (fraction); higher = more cells survive
Bortezomib + Tozasertib = compound: CC(C)C[C@H](NC(=O)[C@H](Cc1ccccc1)NC(=O)c1cnccn1)B(O)O [Bortezomib] + Cc1cc(Nc2cc(N3CCN(C)CC3)nc(Sc3ccc(NC(=O)C4CC4)cc3)n2)n[nH]1 [Tozasertib] (partner 0.1 µM)
Method in brief: (§1)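 The day after seeding in 1536-well plates, lung cancer cell lines were treated by pin tool with a single drug, or with a fixed anchor-drug dose together with five library-drug doses (not always all listed) in √10 steps. After 5 days, a combined fix-and-stain solution (final 0.05% Triton X-100, 1% formaldehyde, 1 ug/ml Hoechst) was added. Nuclei counted on 4× images gave relative viability as treated counts over vehicle counts, reported as the median of duplicate plates.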

[1] = compound: CC1=CC(=NN1)NC2=CC(=NC(=N2)/C=C/C3=CC=CC=C3)N4CCN(CC4)C + O=C(c1cc(Cc2n[nH]c(=O)c3ccccc23)ccc1F)N1CCN(C(=O)C2CC2)CC1 [Olaparib] (partner 8 µM)
Method in brief: as §1

Obatoclax + OSI-027 = compound: COC1=CC(c2cc3ccccc3[nH]2)=N/C1=C\c1[nH]c(C)cc1C [Obatoclax] + COc1cccc2cc(-c3nc([C@H]4CC[C@H](C(=O)O)CC4)n4ncnc(N)c34)[nH]c12 [OSI-027] (partner 0.5 µM)
Method in brief: as §1

Bortezomib + Luminespib = compound: CC(C)C[C@H](NC(=O)[C@H](Cc1ccccc1)NC(=O)c1cnccn1)B(O)O [Bortezomib] + CCNC(=O)c1noc(-c2cc(C(C)C)c(O)cc2O)c1-c1ccc(CN2CCOCC2)cc1 [Luminespib] (partner 0.01 µM)
Method in brief: as §1

Cell Line	relative viability (Bortezomib + Tozasertib; first compound 0.0002 µM)	relative viability (Bortezomib + Tozasertib; first compound 0.000632 µM)	relative viability (Bortezomib + Tozasertib; first compound 0.002 µM)	relative viability (Bortezomib + Tozasertib; first compound 0.006325 µM)	relative viability (Bortezomib + Tozasertib; first compound 0.02 µM)	relative viability ([1]; first compound 0.08 µM)	relative viability ([1]; first compound 0.253 µM)	relative viability ([1]; first compound 0.8 µM)	relative viability ([1]; first compound 2.53 µM)	relative viability ([1]; first compound 8 µM)	relative viability (Obatoclax + OSI-027; first compound 0.01 µM)	relative viability (Obatoclax + OSI-027; first compound 0.03162 µM)	relative viability (Obatoclax + OSI-027; first compound 0.1 µM)	relative viability (Obatoclax + OSI-027; first compound 0.3162 µM)	relative viability (Obatoclax + OSI-027; first compound 1 µM)	relative viability (Bortezomib + Luminespib; first compound 0.0002 µM)	relative viability (Bortezomib + Luminespib; first compound 0.000632 µM)	relative viability (Bortezomib + Luminespib; first compound 0.002 µM)	relative viability (Bortezomib + Luminespib; first compound 0.006325 µM)	relative viability (Bortezomib + Luminespib; first compound 0.02 µM)
NCI-H2342	0.765	0.471	0.511	0.409	0.313	0.411	0.419	0.417	0.412	0.268	0.654	0.615	0.728	0.507	0.618	1.01	0.748	0.699	0.791	0.382
HCC-827	0.418	0.447	0.419	0.12	0.0981	0.605	0.622	0.708	0.62	0.263	0.846	0.733	0.806	0.675	0.778	0.533	0.588	0.415	0.152	0.122
NCI-H322M	0.468	–	0.442	0.278	0.308	0.662	0.762	0.742	0.486	0.281	0.531	0.338	–	0.462	0.386	0.736	–	0.729	0.386	0.322
ChaGo-K-1	0.233	0.207	0.248	0.165	0.155	0.371	0.42	0.38	0.234	0.148	0.694	0.549	0.522	0.512	0.63	0.577	0.554	0.683	0.356	0.169
BEN	0.496	0.554	0.449	0.511	0.362	0.985	1.17	0.987	0.606	0.275	0.28	0.297	–	0.283	0.32	0.314	0.665	0.568	0.249	0.184
NCI-H2347	0.522	0.676	0.471	0.195	0.166	0.553	0.665	0.578	0.565	0.406	0.461	0.408	–	0.467	0.412	0.558	0.607	0.411	0.25	0.208
LOU-NH91	0.643	0.7	0.32	0.224	0.166	0.871	0.958	0.926	0.875	0.385	0.727	0.719	0.566	0.714	0.683	0.352	0.312	0.279	0.252	0.231
NCI-H2228	0.232	0.231	0.251	0.0818	0.102	0.699	0.727	0.374	0.316	0.0565	0.653	0.507	0.524	0.318	0.152	0.129	0.117	0.137	0.0914	0.093
NCI-H358	0.101	0.114	0.103	0.0691	0.0756	0.505	0.644	0.486	0.209	0.068	0.736	0.871	0.903	0.379	0.199	0.285	–	0.349	0.307	0.0995
HCC-366	0.13	0.115	0.094	0.0548	0.0273	0.332	0.39	0.24	0.0237	0.0171	0.961	0.847	0.827	0.821	0.208	–	–	–	–	–
NCI-H2405	0.715	0.804	0.629	0.23	0.153	0.842	0.937	0.93	0.753	0.183	0.65	0.688	–	0.643	0.727	0.685	0.763	0.615	0.227	0.189
Calu-6	–	–	–	–	–	0.577	0.558	0.469	0.289	0.0899	–	–	–	–	–	–	–	–	–	–
201T	0.863	0.968	1.01	0.715	0.278	0.838	0.837	0.828	0.819	0.487	0.762	0.786	0.773	0.748	0.822	1.03	1.01	1.09	0.745	0.215
CAL-12T	0.322	0.285	0.358	0.193	0.106	0.714	0.741	0.714	0.238	0.237	0.62	0.609	0.829	0.138	0.128	0.121	0.447	0.412	0.599	0.105
HCC-44	0.887	–	0.305	0.161	0.221	0.974	1.01	0.956	0.965	0.759	0.577	0.422	0.219	0.441	0.333	0.983	0.984	0.585	0.187	0.197
NCI-H1944	0.234	0.248	0.247	0.195	0.136	0.416	0.406	0.467	0.29	0.207	0.457	0.383	0.381	0.415	0.448	0.715	0.697	0.763	0.548	0.167
SK-MES-1	0.935	0.933	0.882	0.315	0.127	0.667	0.776	0.566	0.126	0.134	0.607	0.611	0.529	0.456	0.179	0.801	0.763	0.72	0.166	0.156
NCI-H2087	0.236	0.276	0.19	0.0648	0.0487	0.538	0.629	0.553	0.303	0.0973	0.768	0.525	0.529	0.333	0.159	0.163	0.145	0.164	0.0644	0.0565
COR-L 105	0.357	0.345	0.216	0.254	0.19	0.591	0.688	0.691	0.658	0.27	0.741	0.906	0.803	0.518	0.301	0.784	0.914	0.614	0.434	0.211

Cell Line	relative viability (Bortezomib + Tozasertib; first compound 0.0002 µM)	relative viability (Bortezomib + Tozasertib; first compound 0.000632 µM)	relative viability (Bortezomib + Tozasertib; first compound 0.002 µM)	relative viability (Bortezomib + Tozasertib; first compound 0.006325 µM)	relative viability (Bortezomib + Tozasertib; first compound 0.02 µM)	relative viability ([1]; first compound 0.08 µM)	relative viability ([1]; first compound 0.253 µM)	relative viability ([1]; first compound 0.8 µM)	relative viability ([1]; first compound 2.53 µM)	relative viability ([1]; first compound 8 µM)	relative viability (Obatoclax + OSI-027; first compound 0.01 µM)	relative viability (Obatoclax + OSI-027; first compound 0.03162 µM)	relative viability (Obatoclax + OSI-027; first compound 0.1 µM)	relative viability (Obatoclax + OSI-027; first compound 0.3162 µM)	relative viability (Obatoclax + OSI-027; first compound 1 µM)	relative viability (Bortezomib + Luminespib; first compound 0.0002 µM)	relative viability (Bortezomib + Luminespib; first compound 0.000632 µM)	relative viability (Bortezomib + Luminespib; first compound 0.002 µM)	relative viability (Bortezomib + Luminespib; first compound 0.006325 µM)	relative viability (Bortezomib + Luminespib; first compound 0.02 µM)
LCLC-97TM1	0.289	0.204	0.25	0.131	0.14	0.258	0.565	0.323	0.214	0.0672	0.606	0.553	0.693	0.347	0.52	0.674	0.756	0.687	0.123	0.139
NCI-H520	0.482	0.401	0.262	0.24	0.232	0.3	0.332	0.307	0.152	0.104	0.256	0.284	0.406	0.251	0.243	0.223	0.234	0.237	0.211	0.217
NCI-H1993	0.595	0.635	0.576	0.454	0.448	1.01	1.24	0.894	0.829	0.419	0.501	0.551	0.623	0.526	0.528	0.799	0.807	0.991	0.428	0.4
NCI-H1437	0.405	0.405	0.403	0.114	0.118	0.603	0.664	0.631	0.416	0.138	0.868	0.889	0.835	0.859	0.752	1.11	1.07	1.14	0.165	0.155
LC-2-ad	0.447	0.477	0.328	0.217	0.199	0.692	0.687	0.704	0.471	0.164	0.838	0.838	0.529	0.724	0.655	0.972	1.06	0.64	0.226	0.214
HARA	0.0998	0.0941	0.0961	0.0503	0.061	0.617	1.01	0.582	0.121	0.099	0.456	0.555	0.444	0.438	0.168	0.718	0.77	0.607	0.0345	0.0465
NCI-H1975	0.676	0.831	0.099	0.0653	0.088	0.75	0.842	0.726	0.389	0.115	0.801	0.665	–	0.511	0.177	0.192	0.122	0.158	0.138	0.177
NCI-H2085	0.873	0.872	0.697	0.302	0.281	0.783	0.792	0.755	0.429	0.28	0.818	0.917	0.587	0.506	0.359	0.482	0.36	0.4	0.178	0.235
NCI-H3122	0.388	0.43	0.266	0.153	0.088	0.568	0.722	0.654	0.62	0.474	0.931	0.976	1.02	0.859	0.2	0.103	0.0765	0.105	0.118	0.113
NCI-H1563	–	–	–	–	–	–	–	–	–	–	0.741	0.797	0.87	0.705	0.619	0.47	0.527	0.562	0.449	0.331
NCI-H1703	–	–	–	–	–	0.355	0.392	0.167	0.168	0.0731	–	–	–	–	–	–	–	–	–	–
NCI-H1648	0.439	0.396	0.262	0.453	0.257	0.979	0.797	0.813	0.747	0.361	0.253	0.226	0.413	0.269	0.232	–	–	–	–	–
HCC-78	0.488	0.331	0.41	0.236	0.209	0.732	0.902	0.903	0.673	0.29	0.393	0.341	0.586	0.539	0.378	–	–	–	–	–
NCI-H1792	–	–	–	–	–	0.437	0.501	0.431	0.374	0.031	0.793	0.716	–	0.624	0.932	0.321	0.452	0.282	0.451	0.229
EBC-1	–	–	–	–	–	0.631	0.753	0.7	0.46	0.114	–	–	–	–	–	–	–	–	–	–
NCI-H1299	–	–	–	–	–	0.961	0.924	0.975	0.616	0.167	–	–	–	–	–	–	–	–	–	–
A549	–	–	–	–	–	0.292	0.529	0.287	0.156	0.0245	–	–	–	–	–	–	–	–	–	–
NCI-H1623	0.425	0.52	0.46	0.316	0.199	–	–	–	–	–	0.429	0.434	0.47	0.389	0.471	0.498	0.496	0.551	0.364	0.277
IA-LM	–	–	–	–	–	0.839	0.899	0.981	1.02	0.174	–	–	–	–	–	–	–	–	–	–
